Values of other authors as cited in patent US20210393580A1, “PROCYANIDINS FOR THE TREATMENT OF ENDOTHELIAL DYSFUNCTION TRIGGERED BY COVID-19” (priority 2020, published 2021).

Experiments:
[1] = system: iNOS (inducible nitric oxide synthase)
[2] = system: SARS proteases, spike protein and nonstructural proteins (NSP-9, 15); conditions: Autodock vina; hydrogen bonds with active site residues, low binding energy
[3] = system: wild-type severe acute respiratory syndrome coronavirus (wtSARS-CoV); conditions: compounds fractionated from CC; for IC50: read-out: IC50, anti-wtSARS-CoV activity

| SMILES | interaction with the SARS viral proteins [2] | other results |
| --- | --- | --- |
| O=C1CCC(Cc2ccc(O)c(O)c2)O1 (stereo not drawn) [M1, δ-(3,4-dihydroxy-phenyl)-γ-valerolactone] |  | excessive nitrite production [1]: reducing; iNOS expression [1]: reducing iNOS (inducible nitric oxide synthase) expression |
| CCc1oc(=O)c(Cc2c(O)c(CC=C(C)C)c(O)c(C(C)=O)c2O)c(O)c1C [arzanol] | significant interaction |  |
| COc1cc(/C=C/C(=O)O)ccc1O [ferulic acid] | significant interaction |  |
| O=c1c(-c2ccc(O)cc2)coc2cc(O)cc(O)c12 [genistein] | significant interaction |  |
| Oc1cc(O)c2c(c1)O[C@@]1(c3ccc(O)c(O)c3)Oc3cc(O)c4c(c3[C@@H]2[C@H]1O)O[C@H](c1ccc(O)c(O)c1)[C@H](O)C4 [procyanidin A2] |  | SI, anti-wtSARS-CoV activity [3]: 37.35; IC50 [3]: 29.9 ± 3.3 µM |
| Oc1cc(O)c2c(c1)O[C@H](c1ccc(O)c(O)c1)[C@H](O)[C@H]2c1c(O)cc(O)c2c1O[C@H](c1ccc(O)c(O)c1)[C@@H](O)C2 [procyanidin B1] |  | SI, anti-wtSARS-CoV activity [3]: 15.69; IC50 [3]: 41.3 ± 3.4 µM |
| Oc1ccc(C=Cc2cc(O)cc(O)c2)cc1 [resveratrol] | significant interaction |  |
| CC(C)c1cc2c(c(O)c1O)[C@@]13CCCC(C)(C)[C@@H]1[C@H](OC3=O)[C@H]2O [rosmanol] | significant interaction |  |
| Cc1cc(O)c(C(C)C)cc1O [thymohydroquinone] | significant interaction |  |
